Test results reported in article PMC7572570 (Clinical cancer research : an official journal of the …, 2020).
“And” between values parts separate entries of the source, which are not always exact repeats. Equal entries are not always repeated. Where two headings read alike, the source gives them in different places.

Assays:
[1] = tested on: select advanced solid tumors or hematologic malignancies; assay: Treatment duration and antitumor activity; assay type: in vivo, human; conditions: all cohorts, heavily pre-treated population with liver dysfunction
clinical = conditions: human, plasma
[2] = Safety, dose-limiting toxicity and treatment-emergent adverse events
[3] = population PK analysis in patients with CTCL and PTCL; cited from earlier work
[4] = in vivo
[5] = mild hepatic impairment 14 mg/m^2 vs normal 14 mg/m^2
[6] = moderate hepatic impairment 7 mg/m^2 vs normal 14 mg/m^2
[7] = patients who did not experience a DLT
[8] = severe hepatic impairment 5 mg/m^2 vs normal 14 mg/m^2
[9] = the two patients who had DLTs (individual values)
[10] = Severe (D) n=6, 5 mg/m^2, treatment-related TEAE, Cycle 1
[11] = Total n=31, all cohorts, treatment-related TEAE, Cycle 1

C/C=C1\NC(=O)[C@H]2CSSCC/C=C/[C@H](CC(=O)N[C@H](C(C)C)C(=O)N2)OC(=O)[C@H](C(C)C)NC1=O [romidepsin]
stable disease as best clinical response [1]: 12 patients
plasma concentrations at last time point (48 hours after initiation of the infusion): still quantifiable at the 48-hour time point
T1/2 (terminal half-life) (Mild Cohort B, 14 mg/m^2 IV, geometric mean ± SD): 13.55±1.41 (7) hr
change of clearance with hepatic function (compared to the normal hepatic function cohort): clearance decreased with worsening hepatic function
geometric mean AUCINF as % of normal hepatic function cohort [5]: ~144%
geometric mean Cmax as % of normal hepatic function cohort [5]: approximately 115%
geometric mean AUCINF as % of normal hepatic function cohort [6]: 114%
geometric mean Cmax as % of normal hepatic function cohort [6]: 96%
dose-normalized AUCINF (AUCINF/D), range [7]: 29.9 to 507.4 ng·h/mL/mg
dose-normalized Cmax (Cmax/D), range [7]: 7.3 to 84.6 ng/mL/mg
time at which plasma concentrations reached a plateau (post infusion initiation (first sample collected), 4-hour IV infusion): approximately 1 hour
geometric mean AUCINF as % of normal hepatic function cohort [8]: 116%
geometric mean Cmax as % of normal hepatic function cohort [8]: approximately 95%
clearance [9]: 6.8 L/h
dose-normalized AUCINF (AUCINF/D) [9]: 192.4 ng·h/mL/mg and 146.6 ng·h/mL/mg
dose-normalized Cmax (Cmax/D) [9]: 32.1 ng/mL/mg and 40.5 ng/mL/mg
clearance (clinical; intravenous, clearance, range, patients who did not experience a DLT): 33.3 to 557 mL/min
half-life (clinical; iv, 5 mg/m2): 14.5 ± 4.25 h
clearance (clinical; iv, 5 mg/m2, Cl (systemic clearance), Severe Cohort D, 5 mg/m^2 IV, geometric mean ± SD): 80 mL/min
Vd (clinical; iv, 5 mg/m2, V (volume of distribution), Severe Cohort D, 5 mg/m^2 IV, geometric mean ± SD): 15.4 ± 5.1 L
half-life (clinical; iv, 7 mg/m2): 14.1 ± 3.88 h
clearance (clinical; iv, 7 mg/m2, Cl (systemic clearance), Moderate Cohort C, 7 mg/m^2 IV, geometric mean ± SD): 115 mL/min
Vd (clinical; iv, 7 mg/m2, V (volume of distribution), Moderate Cohort C, 7 mg/m^2 IV, geometric mean ± SD): 19 ± 6.4 L
half-life (clinical; iv, 14 mg/m2): 11.1 ± 2.1 h
clearance (clinical; iv, 14 mg/m2, Cl (systemic clearance), Mild Cohort B, 14 mg/m^2 IV, geometric mean ± SD): 160 mL/min
clearance (clinical; iv, 14 mg/m2, Cl (systemic clearance), Normal Cohort A, 14 mg/m^2 IV, geometric mean ± SD): 270 mL/min
Vd (clinical; iv, 14 mg/m2, V (volume of distribution), Mild Cohort B, 14 mg/m^2 IV, geometric mean ± SD): 17.1 ± 2.5 L
Vd (clinical; iv, 14 mg/m2, V (volume of distribution), Normal Cohort A, 14 mg/m^2 IV, geometric mean ± SD): 20.7 ± 12.5 L
Flu-like symptoms (malaise), Any Grade [2, 10]: 1 (17%) n (%)
Infections, Any Grade [2, 10]: 1 (17%) n (%)
Flu-like symptoms (malaise), Any Grade [2, 11]: 3 (10%) n (%)
Infections, Any Grade [2, 11]: 4 (13%) n (%)
Infections, Grade 3 or 4 [2, 11]: 1 (3%) n (%)
subjects who discontinued before the end of Cycle 1 due to death ([2]; all cohorts, n): 5
effect of mild hepatic impairment on exposure [3]: no effect on romidepsin exposure
Alkaline phosphatase increased, Any Grade ([4]; human): 1 (3%) n (%)
Anorexia, Any Grade ([4]; human): 11 (35%) n (%)
ECG changes (QT, ST-T changes), number of patients ([4]; human): 4
ECG changes (QT, ST-T changes), patients ([4]; human): 23%
Aspartate aminotransferase increased, Any Grade ([4]; human, 28 day): 1 (3%) n (%)
Asthenia, Any Grade ([4]; human, 28 day): 3 (10%) n (%)
Bradycardia, Any Grade ([4]; human, 28 day): 1 (3%) n (%)
Creatinine increased, Any Grade ([4]; human, 28 day): 2 (6%) n (%)
aPTT increased, Any Grade ([4]; human, 28 day): 1 (3%) n (%)
decreased white blood cell counts, all grade treatment-emergent adverse event ([4]; human, 28 day): 55%
subjects who discontinued before the end of Cycle 1 due to an adverse event ([4]; human, 28 day): 3
vomiting, all grade treatment-emergent adverse event ([4]; human, 28 day): 42%
Abdominal distension, Any Grade ([4]; human, 28 days): 1 (3%) n (%)
Abdominal pain, Any Grade ([4]; human, 28 days): 1 (3%) n (%)
Anemia, Any Grade ([4]; human, 28 days): 9 (29%) n (%)
Anemia, Grade 3 or 4 ([4]; human, 28 days): 1 (3%) n (%)
Diarrhea, Any Grade ([4]; human, 28 days): 2 (6%) n (%)
Dizziness, Any Grade ([4]; human, 28 days): 2 (6%) n (%)
Dry mouth, Any Grade ([4]; human, 28 days): 1 (3%) n (%)
Dry skin, Any Grade ([4]; human, 28 days): 1 (3%) n (%)
Dysgeusia, Any Grade ([4]; human, 28 days): 3 (10%) n (%)
Dyspepsia, Any Grade ([4]; human, 28 days): 1 (3%) n (%)
Fatigue, Any Grade ([4]; human, 28 days): 13 (42%) n (%)
Fatigue, Grade 3 or 4 ([4]; human, 28 days): 2 (6%) n (%)
Gastric haemorrhage, Any Grade ([4]; human, 28 days): 1 (3%) n (%)
Gastric haemorrhage, Grade 3 or 4 ([4]; human, 28 days): 1 (3%) n (%)
Generalized pain, Any Grade ([4]; human, 28 days): 1 (3%) n (%)
Glossodynia, Any Grade ([4]; human, 28 days): 1 (3%) n (%)
Headache, Any Grade ([4]; human, 28 days): 4 (13%) n (%)
Hypercalcemia, Any Grade ([4]; human, 28 days): 1 (3%) n (%)
Hyperuricemia, Any Grade ([4]; human, 28 days): 1 (3%) n (%)
Hypoalbuminemia, Any Grade ([4]; human, 28 days): 3 (10%) n (%)
Hypocalcemia, Any Grade ([4]; human, 28 days): 1 (3%) n (%)
Hypoglycemia, Any Grade ([4]; human, 28 days): 1 (3%) n (%)
Hypokalemia, Any Grade ([4]; human, 28 days): 1 (3%) n (%)
Hypomagnesmia, Any Grade ([4]; human, 28 days): 1 (3%) n (%)
Hyponatremia, Any Grade ([4]; human, 28 days): 4 (13%) n (%)
Hypotension, Any Grade ([4]; human, 28 days): 1 (3%) n (%)
Hypotension, Grade 3 or 4 ([4]; human, 28 days): 1 (3%) n (%)
Muscle cramping, Any Grade ([4]; human, 28 days): 1 (3%) n (%)
Nausea, Any Grade ([4]; human, 28 days): 21 (68%) n (%)
Nausea, Grade 3 or 4 ([4]; human, 28 days): 2 (6%) n (%)
Peripheral neuropathy, Any Grade ([4]; human, 28 days): 2 (6%) n (%)
Photophobia, Any Grade ([4]; human, 28 days): 1 (3%) n (%)
QTc prolongation, Any Grade ([4]; human, 28 days): 7 (23%) n (%)
Tachycardia, Any Grade ([4]; human, 28 days): 2 (6%) n (%)
Thrombocytopenia, Any Grade ([4]; human, 28 days): 16 (52%) n (%)
Thrombocytopenia, Grade 3 or 4 ([4]; human, 28 days): 1 (3%) n (%)
Vomiting, Any Grade ([4]; human, 28 days): 13 (42%) n (%)
WBC decrease, Any Grade ([4]; human, 28 days): 17 (55%) n (%)
WBC decrease, Grade 3 or 4 ([4]; human, 28 days): 7 (23%) n (%)
Weight loss, Any Grade ([4]; human, 28 days): 1 (3%) n (%)
Torsades de Pointes or other treatment-emergent arrhythmia [4]: no cases of Torsades de Pointes or other treatment-emergent arrhythmia
dose-limiting toxicity [4]: without DLT
dose-limiting toxicity, patients [4]: two patients
